From patent US7642085B2, “Protein arrays” (priority 2002, dated 2010)
Converted amounts (≈) assume the structure as drawn. Where two headings read alike, the source gives them in different places.

Legend:
[1] = system: E. coli DH10B cells; assay: growth rate of cells grown in the presence of the unnatural amino acid; conditions: 1 mM; cells transformed with mutRNACUA^Tyr, LW1RS and Z domain gene (Lys7TAG)
Procedure: E. coli DH10B cells cotransformed with pLEIZ and pBK-LW1RS were grown in minimal media containing 1% glycerol and 0.3 mM leucine (GMML media) with 25 μg/mL kanamycin, 34 μg/mL of chloramphenicol, and 1.0 mM p-acetyl-(±)-phenylalanine. When cells reach an OD600 of 0.5, isopropyl-β-D-thiogalactopyranoside (IPTG) (1 mM) was added to induce polypeptide expression.
To test the ability of the evolved synthetase and the mutRNACUA^Tyr to selectively incorporate p-acetyl-L-phenylalanine into polypeptides, an amber stop codon was substituted at a permissive site (Lys7) in the gene for the Z domain of staphylococcal protein A (32) with a COOH-terminal His6 tag. […] Cells transformed with the mutRNACUA^Tyr, LW1RS and Z domain gene (Lys7TAG) were grown in the presence of 1 mM p-acetyl-(±)-phenylalanine.

[2] = system: cells harboring mutant TyrRS plasmids; assay: chloramphenicol resistance of cells harboring mutant TyrRS plasmids selected for m-acetyl phenylalanine; type: cell-based
From the text: Preparation of Mutant TyrRS Library Plasmids. A library of plasmids encoding mutant M. jannaschii TryRSs directed at meta-substituted tyrosine derivatives was constructed, generally following the methods described in Example 1 of WO 2002/085923. Briefly, six residues (Tyr^32, Ala^67, His^70, Gln^155, Asp^158, Ala^167) in the active site of M. jannaschii TyrRS that are within 6.9 Å of the meta-position of the aryl ring of bound tyrosine in the crystal structure of Bacillus stearothermophilus TyrRS were mutated to all 20 amino acids at DNA level using the NNK codon scheme as described in Example 1 above. The constructed plasmid library pBK-lib contained around 1×10^9 independent clones.
Evolution of Orthogonal tRNA-synthetase Pairs for Incorporation of m-acetyl Phenylalanine. After 3 rounds of positive selection and 2 rounds of negative selection, five candidate clones (SEQ ID NO: 17-21 of WO 2002/085923) emerged whose survival in chloramphenicol was dependent on the addition of the unnatural amino acid. In the absence of m-acetyl phenylalanine, the IC50 of chloramphenicol resistance for cells harboring the one of the […] mutant TyrRS plasmids is 20 μg/ml. In the presence of m-acetyl phenylalanine, the IC50 of resistance to chloramphenicol for the same cells is 100 μg/ml. […]

[3] = system: E. coli cells expressing mutant TyrRS and mutRNACUA^Tyr; assay: in vivo CAT assay: chloramphenicol resistance of cells expressing selected mutant TyrRS and mutRNACUA^Tyr (Asp112TAG CAT gene); type: cell-based, Escherichia coli; conditions: for IC50: Escherichia coli, read-out: IC50 value of chloramphenicol, eleven mutant TyrRS
Procedure: In the positive selection, plasmid pYC-J17 was used to express the mutRNACUA^Tyr gene and the chloramphenicol acetyl transferase (CAT) gene with a TAG stop codon at Asp112 (4). Supercoiled DNA encoding the TyrRS library was transformed into E. coli DH10B competent cells containing pYC-J17. Cells were then plated on minimal media plates containing 1% glycerol and 0.3 mM leucine (GMML) with 17 μg/mL tetracycline, 25 μg/mL kanamycin, 60 μg/mL of chloramphenicol, and 1 mM p-acetyl-L-phenylalanine. After incubation at 37° C. for 40 hours, colonies were pooled, and plasmids were isolated. Plasmids encoding mutant synthetases (pBK plasmids) were separated from pYC-J17 using gel electrophoresis and transformed into E. coli DH10B competent cells containing pLWJ17B3 for negative selection. […] Transformed cells were grown on LB (Luria-Bertani) plates containing 0.2% arabinose, 50 μg/ml kanamycin, and 35 μg/ml chloramphenicol. After 8 hours, cells were removed from the plate, and pBK plasmids were purified for further rounds of selection. In the second and third round of positive selection, the concentration of chloramphenicol was increased to 80 and 100 μg/mL, respectively. […] The polypeptide sequences of these mutant TyrRS converged on 3 independent clones LW1, LW5 and LW6, although the codon usage of each mutant TyrRS differs.
The Methanococcus jannaschii tyrosyl-tRNA synthetase (TyrRS) and a mutant tyrosine amber suppressor tRNA (mutRNACUA^Tyr) were used as the starting point for the generation of the orthogonal tRNA-synthetase pairs. […] To change the amino acid specificity of the TyrRS so that it charges p-acetyl-L-phenylalanine and not any of the common 20 amino acids, a library of M. jannaschii TyrRS mutants was generated and screened. The crystal structure of the homologous Bacillus stearothertnophilus TyrRS (31) was used to identify those residues that are within 6.5 Å of the para position of the aryl ring of bound tyrosine. Five corresponding residues (Tyr32, Glu107, Asp158, Ile159 and Leu162) in the active site of M. jannaschii TyrRS were randomly mutated by polymerase chain reaction (PCR) to generate a library 1.6×10^9 in size (4). This TyrRS mutant library was first passed through a positive selection in the presence of 1 mM p-acetyl-L-phenylalanine which is based on the suppression of an amber stop codon at nonessential residue (Asp 112) in chloramphenicol acetyl transferase (CAT) gene encoded on plasmid pYC-J17 (4) in E. coli. Cells surviving in chloramphenicol must encode a mutant synthetase that aminoacylates the mutRNACUA^Tyr with either a common amino acid(s) or p-acetyl-L-phenylalanine. […]

[4] = system: mutant Z domain protein expressed by mutRNACUA^Tyr/LW1RS; assay: fidelity of unnatural amino acid incorporation into Z domain (Lys7TAG), by FT-ICR MS; parameters: species or system E. coli; conditions: from a signal-to-noise ratio of more than 1500 in the intact protein mass spectrum
From the text: Plasmid pLEIZ was used to express the Z-domain gene with an amber codon at the 7th position and a COOH-terminal His6 tag under the control of a bacteriophage T5 promoter and t0 terminator, and the mutRNACUA^Tyr gene under the control of the lpp promoter and rrnC terminator. The mutant synthetase gene isolated from clone LW1 (LW1RS) was encoded in plasmid pBK-LW1RS under the control of the constitutive E. coli GlnRS promoter and terminator. E. coli DH10B cells cotransformed with pLEIZ and pBK-LW1RS were grown in minimal media containing 1% glycerol and 0.3 mM leucine (GMML media) with 25 μg/mL kanamycin, 34 μg/mL of chloramphenicol, and 1.0 mM p-acetyl-(±)-phenylalanine. When cells reach an OD600 of 0.5, isopropyl-β-D-thiogalactopyranoside (IPTG) (1 mM) was added to induce polypeptide expression. […] The yield of polypeptide was measured by Bradford assay (BCA kit, Biorad, Hercules, Calif.). […]
To test the ability of the evolved synthetase and the mutRNACUA^Tyr to selectively incorporate p-acetyl-L-phenylalanine into polypeptides, an amber stop codon was substituted at a permissive site (Lys7) in the gene for the Z domain of staphylococcal protein A (32) with a COOH-terminal His6 tag. Z domain has a molecular weight of about 7.9 kD, so its mass can be measured with very high accuracy using ion cyclotron resonance mass spectrometry. […]

SMILES: CC(=O)c1ccc(CC(N)C(=O)O)cc1 (racemic) [p-acetyl-(±)-phenylalanine]
- effect on growth rate of cells [1]: did not affect the growth rate of cells

SMILES: O=C(N[C@H](CO)[C@H](O)c1ccc([N+](=O)[O-])cc1)C(Cl)Cl [chloramphenicol]
- IC50 ([2]; in the presence of m-acetyl phenylalanine, read-out: IC50 of resistance to chloramphenicol): 100 µg/mL
- IC50 ([2]; read-out: IC50 of chloramphenicol resistance): 20 µg/mL (≈ 61.9 µM)
- IC50 ([3]; in the absence of p-acetyl-L-phenylalanine): 9 µg/mL (≈ 27.9 µM)
- IC50 ([3]; in the presence of p-acetyl-L-phenylalanine): 120 µg/mL
- chloramphenicol concentration on which cells survived ([3]; GMML plates, in the absence of p-acetyl-L-phenylalanine): 9 µg/mL
- chloramphenicol concentration in which cells survived ([3]; GMML plates, in the presence of p-acetyl-L-phenylalanine): 120 µg/mL

SMILES: CC(=O)c1ccc(C[C@H](N)C(=O)O)cc1 [p-acetyl-L-phenylalanine]
- fidelity for the incorporation [4]: > 99.8%
